Experimental data from the kinase profiling compilation of Christmann-Franck et al. (2016).

Experiments:
Experiment in all cases: KINOMEscan competition binding
Details in all cases: compound 0.1 µM
PLK3 (human) = PLK3 (human) (UniProt Q9H4B4)
STK24 (human) = STK24 (human) (UniProt Q9Y6E0)
TNNI3K (human) = TNNI3K (human) (UniProt Q59H18)
GAK (human) = GAK (human) (UniProt O14976)
MYLK (human) = MYLK (human) (UniProt Q15746)
STK32C (human) = STK32C (human) (UniProt Q86UX6)
TXK (human) = TXK (human) (UniProt P42681)
RIPK1 (human) = RIPK1 (human) (UniProt Q13546)
MAPKAPK2 (human) = MAPKAPK2 (human) (UniProt P49137)
EPHB3 (human) = EPHB3 (human) (UniProt P54753)
[1] = tested on: KIT (human), P10721 [D816H]
MAPK8 (human) = MAPK8 (human) (UniProt P45983)
EIF2AK1 (human) = EIF2AK1 (human) (UniProt Q9BQI3)
BRSK1 (human) = BRSK1 (human) (UniProt Q8TDC3)
MARK1 (human) = MARK1 (human) (UniProt Q9P0L2)
CASK (human) = CASK (human) (UniProt O14936)
PRKD3 (human) = PRKD3 (human) (UniProt O94806)
[2] = tested on: EGFR (human), P00533 [T790M/L858R]
[3] = target: TYK2 JH1 catalytic (human) (UniProt P29597)
WEE2 (human) = WEE2 (human) (UniProt P0C1S8)
TTK (human) = TTK (human) (UniProt P33981)
TNIK (human) = TNIK (human) (UniProt Q9UKE5)
MAPK3 (human) = MAPK3 (human) (UniProt P27361)
STK36 (human) = STK36 (human) (UniProt Q9NRP7)
PAK7 (human) = PAK7 (human) (UniProt Q9P286)
PIM1 (human) = PIM1 (human) (UniProt P11309)
CSNK1D (human) = CSNK1D (human) (UniProt P48730)
CDK17 (human) = CDK17 (human) (UniProt Q00537)
FGFR2 (human) = FGFR2 (human) (UniProt P21802)
CSNK1A1L (human) = CSNK1A1L (human) (UniProt Q8N752)
NLK (human) = NLK (human) (UniProt Q9UBE8)
CDK8 (human) = CDK8 (human) (UniProt P49336)
MYLK4 (human) = MYLK4 (human) (UniProt Q86YV6)
[4] = tested on: PIK3CA (human), P42336 [M1043I]
ICK (human) = ICK (human) (UniProt Q9UPZ9)
[5] = tested on: FGFR3 (human), P22607 [G697C]
[6] = target: JAK1 JH1 catalytic (human) (UniProt P23458)
WEE1 (human) = WEE1 (human) (UniProt P30291)
GRK4 (human) = GRK4 (human) (UniProt P32298)
STK38 (human) = STK38 (human) (UniProt Q15208)

Sequence of JAK1 JH1 catalytic (human) (P23458 whole entry, looked up): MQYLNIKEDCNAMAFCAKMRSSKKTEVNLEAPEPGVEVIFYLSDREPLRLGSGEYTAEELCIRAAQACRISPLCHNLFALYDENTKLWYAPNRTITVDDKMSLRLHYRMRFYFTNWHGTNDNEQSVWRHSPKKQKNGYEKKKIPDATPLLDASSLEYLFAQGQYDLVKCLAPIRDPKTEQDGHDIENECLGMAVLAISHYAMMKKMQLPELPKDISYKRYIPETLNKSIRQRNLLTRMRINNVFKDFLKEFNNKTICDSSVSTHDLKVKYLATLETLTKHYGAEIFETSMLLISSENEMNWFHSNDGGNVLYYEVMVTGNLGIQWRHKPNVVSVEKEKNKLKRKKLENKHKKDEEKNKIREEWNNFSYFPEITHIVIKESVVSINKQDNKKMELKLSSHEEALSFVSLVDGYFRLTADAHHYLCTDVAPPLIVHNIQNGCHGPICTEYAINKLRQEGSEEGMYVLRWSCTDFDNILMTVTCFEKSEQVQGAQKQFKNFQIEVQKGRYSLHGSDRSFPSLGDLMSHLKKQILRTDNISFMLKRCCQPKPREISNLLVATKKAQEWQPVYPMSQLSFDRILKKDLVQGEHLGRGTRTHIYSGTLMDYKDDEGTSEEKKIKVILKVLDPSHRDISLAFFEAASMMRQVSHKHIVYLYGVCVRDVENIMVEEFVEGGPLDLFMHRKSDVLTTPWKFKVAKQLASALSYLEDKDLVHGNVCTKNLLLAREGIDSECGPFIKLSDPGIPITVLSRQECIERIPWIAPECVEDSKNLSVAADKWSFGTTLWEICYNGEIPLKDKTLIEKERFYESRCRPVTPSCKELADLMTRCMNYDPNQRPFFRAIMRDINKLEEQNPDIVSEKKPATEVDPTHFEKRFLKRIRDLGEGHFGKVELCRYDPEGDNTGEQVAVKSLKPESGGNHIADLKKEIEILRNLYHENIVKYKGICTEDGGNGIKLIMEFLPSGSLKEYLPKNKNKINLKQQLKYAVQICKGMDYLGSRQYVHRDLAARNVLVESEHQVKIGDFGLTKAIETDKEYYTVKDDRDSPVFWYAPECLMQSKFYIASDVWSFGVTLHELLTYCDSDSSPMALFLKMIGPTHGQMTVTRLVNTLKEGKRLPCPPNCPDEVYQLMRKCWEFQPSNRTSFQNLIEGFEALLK
Sequence of MYLK4 (human) (Q86YV6 whole entry, looked up): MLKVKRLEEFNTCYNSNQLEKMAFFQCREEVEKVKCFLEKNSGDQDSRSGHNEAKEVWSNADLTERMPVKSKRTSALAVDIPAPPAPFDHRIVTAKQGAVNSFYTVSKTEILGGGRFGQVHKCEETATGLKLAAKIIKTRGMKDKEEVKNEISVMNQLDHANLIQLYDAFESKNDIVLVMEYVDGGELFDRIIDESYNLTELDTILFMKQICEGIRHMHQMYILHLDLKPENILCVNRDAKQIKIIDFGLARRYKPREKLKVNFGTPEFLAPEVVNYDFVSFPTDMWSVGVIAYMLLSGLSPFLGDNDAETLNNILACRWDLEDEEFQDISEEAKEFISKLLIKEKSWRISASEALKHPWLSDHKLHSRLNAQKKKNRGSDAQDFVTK
Sequence of WEE2 (human) (P0C1S8 whole entry, looked up): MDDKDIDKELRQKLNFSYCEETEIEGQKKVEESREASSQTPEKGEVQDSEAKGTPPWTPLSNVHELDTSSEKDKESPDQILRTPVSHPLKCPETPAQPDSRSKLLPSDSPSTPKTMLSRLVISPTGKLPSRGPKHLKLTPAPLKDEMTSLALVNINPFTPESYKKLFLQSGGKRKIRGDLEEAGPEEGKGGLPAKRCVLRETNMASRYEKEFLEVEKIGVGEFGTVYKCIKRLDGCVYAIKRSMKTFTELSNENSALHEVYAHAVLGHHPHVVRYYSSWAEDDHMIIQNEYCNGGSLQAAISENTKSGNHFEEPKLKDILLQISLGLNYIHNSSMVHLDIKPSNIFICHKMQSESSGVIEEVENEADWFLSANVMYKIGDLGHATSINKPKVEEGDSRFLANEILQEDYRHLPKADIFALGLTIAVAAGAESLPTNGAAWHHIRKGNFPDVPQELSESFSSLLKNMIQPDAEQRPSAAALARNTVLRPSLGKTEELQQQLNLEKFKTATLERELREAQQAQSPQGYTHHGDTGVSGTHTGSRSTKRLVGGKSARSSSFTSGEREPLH
Sequence of MAPKAPK2 (human) (P49137 whole entry, looked up): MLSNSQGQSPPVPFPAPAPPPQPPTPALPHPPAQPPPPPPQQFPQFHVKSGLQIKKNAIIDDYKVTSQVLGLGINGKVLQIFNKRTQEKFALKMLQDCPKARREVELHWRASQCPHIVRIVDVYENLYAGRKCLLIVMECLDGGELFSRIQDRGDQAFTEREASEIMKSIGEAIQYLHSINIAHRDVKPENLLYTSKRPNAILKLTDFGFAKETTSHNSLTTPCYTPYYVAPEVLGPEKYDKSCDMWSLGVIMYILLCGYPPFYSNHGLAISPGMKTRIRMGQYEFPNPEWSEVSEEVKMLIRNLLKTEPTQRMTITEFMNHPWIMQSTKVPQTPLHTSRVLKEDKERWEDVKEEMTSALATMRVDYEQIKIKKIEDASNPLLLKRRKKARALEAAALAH
Sequence of EPHB3 (human) (P54753 whole entry, looked up): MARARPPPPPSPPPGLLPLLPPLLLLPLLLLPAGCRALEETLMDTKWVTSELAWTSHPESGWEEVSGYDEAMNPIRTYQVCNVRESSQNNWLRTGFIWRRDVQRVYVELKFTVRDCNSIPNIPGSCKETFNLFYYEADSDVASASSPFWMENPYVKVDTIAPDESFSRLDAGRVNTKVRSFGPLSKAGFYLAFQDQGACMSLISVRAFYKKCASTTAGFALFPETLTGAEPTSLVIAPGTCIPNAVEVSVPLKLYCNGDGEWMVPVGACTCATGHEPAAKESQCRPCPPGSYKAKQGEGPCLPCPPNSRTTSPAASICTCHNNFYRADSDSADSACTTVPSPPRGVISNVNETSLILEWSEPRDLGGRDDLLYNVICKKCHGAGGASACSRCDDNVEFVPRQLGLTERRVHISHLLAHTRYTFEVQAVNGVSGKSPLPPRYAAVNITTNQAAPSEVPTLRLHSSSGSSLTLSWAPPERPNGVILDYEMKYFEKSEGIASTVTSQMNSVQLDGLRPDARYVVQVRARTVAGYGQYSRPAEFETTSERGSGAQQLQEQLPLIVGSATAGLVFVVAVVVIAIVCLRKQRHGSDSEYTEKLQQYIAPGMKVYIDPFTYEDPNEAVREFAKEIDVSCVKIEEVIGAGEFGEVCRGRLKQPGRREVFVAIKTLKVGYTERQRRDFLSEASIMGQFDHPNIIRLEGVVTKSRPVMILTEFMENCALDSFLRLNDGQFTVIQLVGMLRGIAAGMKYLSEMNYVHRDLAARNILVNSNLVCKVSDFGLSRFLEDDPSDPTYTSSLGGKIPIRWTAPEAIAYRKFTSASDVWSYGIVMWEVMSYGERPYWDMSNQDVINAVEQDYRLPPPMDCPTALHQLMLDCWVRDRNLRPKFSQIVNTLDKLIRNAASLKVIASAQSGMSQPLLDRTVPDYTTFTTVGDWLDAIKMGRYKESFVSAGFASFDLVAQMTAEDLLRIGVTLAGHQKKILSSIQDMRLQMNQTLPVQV
Sequence of STK36 (human) (Q9NRP7 whole entry, looked up): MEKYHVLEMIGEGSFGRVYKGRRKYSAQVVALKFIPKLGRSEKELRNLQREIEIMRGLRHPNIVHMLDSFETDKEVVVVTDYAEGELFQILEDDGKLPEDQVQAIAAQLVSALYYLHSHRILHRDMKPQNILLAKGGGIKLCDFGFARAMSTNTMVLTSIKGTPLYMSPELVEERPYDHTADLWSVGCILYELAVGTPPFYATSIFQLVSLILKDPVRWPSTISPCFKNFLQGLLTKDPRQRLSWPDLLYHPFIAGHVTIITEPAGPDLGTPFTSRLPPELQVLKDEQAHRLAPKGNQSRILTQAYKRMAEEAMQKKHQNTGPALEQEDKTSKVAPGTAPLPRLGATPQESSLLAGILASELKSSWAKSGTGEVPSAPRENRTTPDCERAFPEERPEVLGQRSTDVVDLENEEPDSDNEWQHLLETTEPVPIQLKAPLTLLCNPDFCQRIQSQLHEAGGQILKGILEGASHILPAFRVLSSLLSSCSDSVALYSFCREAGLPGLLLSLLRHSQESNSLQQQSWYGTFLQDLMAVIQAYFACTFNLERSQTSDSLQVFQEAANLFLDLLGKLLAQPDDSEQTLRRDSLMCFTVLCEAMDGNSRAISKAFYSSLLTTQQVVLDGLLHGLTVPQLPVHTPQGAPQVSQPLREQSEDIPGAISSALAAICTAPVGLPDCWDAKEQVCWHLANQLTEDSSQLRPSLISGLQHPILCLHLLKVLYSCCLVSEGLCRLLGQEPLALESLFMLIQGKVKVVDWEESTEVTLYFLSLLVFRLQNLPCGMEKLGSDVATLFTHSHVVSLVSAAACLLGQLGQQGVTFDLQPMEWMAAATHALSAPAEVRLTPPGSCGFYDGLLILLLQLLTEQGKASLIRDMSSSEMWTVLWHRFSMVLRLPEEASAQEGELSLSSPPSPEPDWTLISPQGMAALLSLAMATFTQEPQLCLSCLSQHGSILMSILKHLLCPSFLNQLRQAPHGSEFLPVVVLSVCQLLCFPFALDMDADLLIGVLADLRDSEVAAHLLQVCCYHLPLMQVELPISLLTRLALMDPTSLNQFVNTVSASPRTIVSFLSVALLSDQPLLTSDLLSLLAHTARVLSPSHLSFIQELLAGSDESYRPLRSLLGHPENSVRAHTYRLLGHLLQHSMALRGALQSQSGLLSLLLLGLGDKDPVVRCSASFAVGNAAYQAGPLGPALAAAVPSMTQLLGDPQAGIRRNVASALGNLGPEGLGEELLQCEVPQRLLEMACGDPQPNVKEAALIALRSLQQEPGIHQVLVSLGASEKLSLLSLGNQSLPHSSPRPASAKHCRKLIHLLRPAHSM

## CCc1ccc(C(=O)Nc2cc(CN3CCN(C)CC3)cc(C(F)(F)F)c2)cc1C#Cc1cnc2ccnn2c1
PLK3 (human)
  kinase still bound, per cent of control: 100%
STK24 (human)
  kinase still bound, per cent of control: 100%
TNNI3K (human)
  kinase still bound, per cent of control: 56%
GAK (human)
  kinase still bound, per cent of control: 95%
MYLK (human)
  kinase still bound, per cent of control: 100%
STK32C (human)
  kinase still bound, per cent of control: 96%
TXK (human)
  kinase still bound, per cent of control: 79%
RIPK1 (human)
  kinase still bound, per cent of control: 100%
MAPKAPK2 (human)
  kinase still bound, per cent of control: 100%
EPHB3 (human)
  kinase still bound, per cent of control: 94%
[1]
  kinase still bound, per cent of control: 81%
MAPK8 (human)
  kinase still bound, per cent of control: 100%
EIF2AK1 (human)
  kinase still bound, per cent of control: 100%
BRSK1 (human)
  kinase still bound, per cent of control: 100%
MARK1 (human)
  kinase still bound, per cent of control: 74%
CASK (human)
  kinase still bound, per cent of control: 100%
PRKD3 (human)
  kinase still bound, per cent of control: 97%
[2]
  kinase still bound, per cent of control: 48%
[3]
  kinase still bound, per cent of control: 100%
WEE2 (human)
  kinase still bound, per cent of control: 84%
TTK (human)
  kinase still bound, per cent of control: 77%
TNIK (human)
  kinase still bound, per cent of control: 84%
MAPK3 (human)
  kinase still bound, per cent of control: 100%
STK36 (human)
  kinase still bound, per cent of control: 84%
PAK7 (human)
  kinase still bound, per cent of control: 85%
PIM1 (human)
  kinase still bound, per cent of control: 80%
CSNK1D (human)
  kinase still bound, per cent of control: 77%
CDK17 (human)
  kinase still bound, per cent of control: 100%
FGFR2 (human)
  kinase still bound, per cent of control: 100%
CSNK1A1L (human)
  kinase still bound, per cent of control: 83%
NLK (human)
  kinase still bound, per cent of control: 45%
CDK8 (human)
  kinase still bound, per cent of control: 76%
MYLK4 (human)
  kinase still bound, per cent of control: 93%
[4]
  kinase still bound, per cent of control: 100%
ICK (human)
  kinase still bound, per cent of control: 100%
[5]
  kinase still bound, per cent of control: 90%
[6]
  kinase still bound, per cent of control: 100%
WEE1 (human)
  kinase still bound, per cent of control: 100%
GRK4 (human)
  kinase still bound, per cent of control: 97%
STK38 (human)
  kinase still bound, per cent of control: 93%
